Among the data in PubChem BioAssay (NCI) are GI50 and TGI values, retold here.

Some test systems named below: DU-145 prostate; HS 578T breast; HT29 colon; MDA-MB-435; NCI/ADR-RES ovarian; OVCAR-4 ovarian; OVCAR-8 ovarian; SN12C renal; UACC-257 melanoma; UO-31 renal.
Holding throughout (test): inhibition of tumour cell growth, NCI panel, 48 h

Molecules are shown by their SMILES. “And” between values parts separate entries of the source, which are not always exact repeats. Equal values may be shown once.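 These data come from cells grown in 96-well plates and exposed to compound for 48 hours at five concentrations. GI50 is the concentration that inhibits growth by half. At the TGI there is no net growth.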

In the case of `N#CC(I)CS(=O)(=O)c1ccccc1` (configuration not stated), the GI50 with DU-145 prostate was 17.2 µM; with HS 578T breast it was 26.5 µM; with HT29 colon, 2 µM; with MDA-MB-435, 17.6 µM; in the assay with NCI/ADR-RES ovarian it was 17.5 µM; with OVCAR-4 ovarian it was 2.01 µM. The GI50 was 17.4 µM in the assay with OVCAR-8 ovarian, 16.1 µM in the assay on SN12C renal, 17 µM in the assay on UACC-257 melanoma and 12 µM in the assay with UO-31 renal. In addition, the TGI in the assay on DU-145 prostate came out at 31.3 µM; in the assay on HS 578T breast, 61.4 µM; with HT29 colon it was 4.51 µM; in the assay on MDA-MB-435, 34.5 µM; with NCI/ADR-RES ovarian, 35.1 µM; in the assay with OVCAR-4 ovarian it was 4.69 µM. The TGI amounted to 32.2 µM with OVCAR-8 ovarian, 29.9 µM with SN12C renal, 31.2 µM in the assay with UACC-257 melanoma and 25.8 µM with UO-31 renal.
`COc1ccc(-c2cc(=O)oc3c4c(ccc23)OCN(Cc2ccc(F)cc2)C4)cc1`: the GI50 in the assay on DU-145 prostate is 24.3 µM; in the assay with HS 578T breast, 15.8 µM; in the assay with HT29 colon it was 17.6 µM; in the assay on MDA-MB-435, 16.5 µM; with NCI/ADR-RES ovarian it was 17.2 µM; with OVCAR-4 ovarian it was 17.4 µM. Also, the GI50 is 17.2 µM with OVCAR-8 ovarian, 15.6 µM with SN12C renal, 14.9 µM in the assay on UACC-257 melanoma and 7.26 µM with UO-31 renal. For the same compound, the TGI with DU-145 prostate was 59.9 µM; in the assay with HS 578T breast, 47.9 µM; with HT29 colon it was 34.9 µM; with MDA-MB-435, 34.7 µM; with NCI/ADR-RES ovarian, 42.9 µM; in the assay on OVCAR-4 ovarian, 43.2 µM. Besides, the TGI amounted to 37.7 µM in the assay with OVCAR-8 ovarian, 32.2 µM in the assay on SN12C renal, 29.9 µM in the assay on UACC-257 melanoma and 37.9 µM with UO-31 renal.
For `NC(=O)c1cc(I)ccc1NC(=O)/C=C/c1ccccc1`, the GI50 is 0.352 µM in the assay with DU-145 prostate; 0.364 µM with HS 578T breast; 0.374 µM in the assay with HT29 colon; 0.192 µM with MDA-MB-435; 0.351 µM in the assay on NCI/ADR-RES ovarian; 1.84 µM in the assay on OVCAR-4 ovarian. Besides, the GI50 was 1.18 µM in the assay on OVCAR-8 ovarian, 0.69 µM in the assay on SN12C renal, 14.3 µM with UACC-257 melanoma and 1.77 µM in the assay with UO-31 renal. Besides, the TGI in the assay on DU-145 prostate was 2.97 µM; in the assay with HS 578T breast, 15.4 µM; with HT29 colon, more than 31.8 µM; in the assay on MDA-MB-435 it was 0.445 µM; with NCI/ADR-RES ovarian, 3.92 µM; in the assay with OVCAR-4 ovarian, 30.5 µM. For the same compound, the TGI with OVCAR-8 ovarian is 27.8 µM; in the assay on SN12C renal, more than 63.4 µM; in the assay on UACC-257 melanoma, 53.3 µM; in the assay with UO-31 renal, more than 48.9 µM.
In the case of `CC(C)=CCC1=C(O)c2ccccc2C(=O)C1=O`, the GI50 in the assay on DU-145 prostate is 23.5 µM; in the assay on MDA-MB-435, 21.8 µM; with NCI/ADR-RES ovarian it was 12.4 µM; with OVCAR-4 ovarian, 11.7 µM; with OVCAR-8 ovarian it was > 100 µM and 26.7 µM and 20.8 µM; in the assay with SN12C renal it was > 100 µM and 31.3 µM. In addition, the GI50 in the assay on UACC-257 melanoma was > 100 µM and 28.6 µM; in the assay on UO-31 renal it was more than 100 µM. Moreover, the TGI in the assay on DU-145 prostate, in the assay on HS 578T breast, with HT29 colon, with MDA-MB-435, in the assay with NCI/ADR-RES ovarian and in the assay on OVCAR-4 ovarian was more than 100 µM each time. In addition, the TGI in the assay on OVCAR-8 ovarian, with SN12C renal, with UACC-257 melanoma and in the assay with UO-31 renal was more than 100 µM throughout.
Regarding `COc1ccc(Cl)cc1NC(=O)c1ccc(NC2=C(Cl)C(=O)N(Cc3ccccc3)C2=O)cc1`, the GI50 in the assay on DU-145 prostate is more than 100 µM; in the assay with HS 578T breast it was 37.1 µM; in the assay with HT29 colon it was 4.8 µM; in the assay with MDA-MB-435 it was 99.7 µM; in the assay on NCI/ADR-RES ovarian, 55.1 µM; with OVCAR-4 ovarian, more than 100 µM. Besides, the GI50 with OVCAR-8 ovarian is 19.4 µM; with SN12C renal, 23 µM; in the assay with UACC-257 melanoma, 94.1 µM; in the assay with UO-31 renal, more than 100 µM. The TGI in the assay with DU-145 prostate, with HS 578T breast, with HT29 colon, in the assay on MDA-MB-435, in the assay on NCI/ADR-RES ovarian and in the assay with OVCAR-4 ovarian was more than 100 µM throughout. In addition, the TGI in the assay on OVCAR-8 ovarian, in the assay with SN12C renal, in the assay with UACC-257 melanoma and with UO-31 renal was more than 100 µM each time.
For the compound `O=C(Nc1nc(-c2c[nH]c3ccccc23)cs1)c1n[nH]c(=O)c2ccccc12`, the GI50 is 3.33 µM in the assay with DU-145 prostate; 5.52 µM in the assay on HS 578T breast; 1.19 µM in the assay on HT29 colon; 3.96 µM in the assay with MDA-MB-435; 6.74 µM in the assay on NCI/ADR-RES ovarian; 20.6 µM in the assay on OVCAR-4 ovarian. Besides, the GI50 in the assay with OVCAR-8 ovarian is 2.26 µM; in the assay with SN12C renal it was 10.8 µM; with UACC-257 melanoma, 38.4 µM; in the assay on UO-31 renal, 8.46 µM. Also, the TGI in the assay with DU-145 prostate is more than 31 µM; in the assay on HS 578T breast, 55 µM; in the assay with HT29 colon, more than 100 µM; with MDA-MB-435, more than 100 µM; in the assay with NCI/ADR-RES ovarian, 78.6 µM; in the assay with OVCAR-4 ovarian it was more than 100 µM. For the same compound, the TGI in the assay with OVCAR-8 ovarian was more than 67.6 µM; with SN12C renal it was more than 100 µM; in the assay with UACC-257 melanoma, more than 100 µM; in the assay on UO-31 renal, more than 67.7 µM.
Turning to `CN(Cc1cnc2nc(N)nc(N)c2n1)c1ccc(C(=O)N[C@@H](CCS(=O)(=O)O)C(=O)O)cc1`, the GI50 in the assay with DU-145 prostate is 1.31 µM. Moreover, the TGI with DU-145 prostate, in the assay on HS 578T breast, in the assay with HT29 colon, in the assay with MDA-MB-435, in the assay on NCI/ADR-RES ovarian and in the assay with OVCAR-4 ovarian was more than 100 µM throughout. The TGI in the assay with OVCAR-8 ovarian was more than 55.3 µM; in the assay with SN12C renal it was more than 100 µM; in the assay with UACC-257 melanoma it was more than 100 µM; in the assay with UO-31 renal, more than 100 µM.
Regarding `NC(=S)N/N=C/c1ncccc1O`, the GI50 was 1.46 µM and 0.77 µM in the assay on DU-145 prostate; 2.72 µM with HT29 colon; 1.33 µM with MDA-MB-435; 2.21 µM in the assay with NCI/ADR-RES ovarian; 5.21 µM in the assay with OVCAR-4 ovarian; 2.58 µM and 0.813 µM in the assay on OVCAR-8 ovarian. Besides, the GI50 is 2.04 µM in the assay with SN12C renal and 1.48 µM in the assay on UO-31 renal. Also, the TGI with DU-145 prostate was 17.1 µM and > 114 µM; in the assay with HS 578T breast, 835 µM; with HT29 colon, more than 1000 µM; in the assay on MDA-MB-435, more than 471 µM; with NCI/ADR-RES ovarian, 38 µM and 6.56 µM; in the assay on OVCAR-4 ovarian, more than 929 µM. Besides, the TGI in the assay with OVCAR-8 ovarian is > 72.2 µM and 135 µM; in the assay on SN12C renal it was 24.1 µM and 45.2 µM; with UACC-257 melanoma, 8.97 µM and 72.7 µM; in the assay with UO-31 renal, > 33.8 µM and 6.46 µM.
